Consider 14 compounds from USRE39198E1, “Heteroarylpiperidines, pyrrolidines and piperazines and their use as antipsychotics and analgesics” (Aventis Pharmaceuticals Inc., priority 1989, dated 2006).

The structures appear in SMILES notation.

`CC(=O)c1ccc(OCc2ccccc2)c(OC/C=C/CN2CCC(c3noc4cc(F)ccc34)CC2)c1` [Example 85, (E)-1-[3-[[4-[4-(6-Fluoro-1,2-benzisoxazol-3-yl)-1-piperidinyl]-2-butenyl]oxy]-4-benzyloxyphenyl]ethanone]: the melting point was 124 to 125 °C.

`Fc1ccc2c(C3CCN(CC4COc5ccccc5O4)CC3)noc2c1` (centres unmarked) [Example 91, 2-[4-(6-Fluoro-1,2-benzisoxazol-3-yl)-1-piperidinyl]methyl-1,4-benzodioxan] registered a melting point of 86 to 87 °C.

Turning to `CC(=O)c1ccc2c(c1)oc(=O)n2CCCN1CCC(c2noc3cc(F)ccc23)CC1` [Example 94, N-[3-[4-(6-Fluoro-1,2-benzisoxazol-3-yl)-1-piperidinyl]propyl]-6-acetyl-2-benzoxazolinone], the melting point was 152 to 154 °C.

`O=C1c2ccccc2C(=O)N1CCCCN1CCC(c2noc3cc(F)ccc23)CC1` [Example 98, N-[4-[4-(6-Fluoro-1,2-benzisoxazol-3-yl)-1-piperidinyl]butyl]phthalimide] yielded a melting point of 144 to 146 °C.

Turning to `CC(=O)c1ccc(NCCCN2CCC(c3noc4cc(F)ccc34)CC2)c(O)c1` [Example 111, 1-[4-[3-[4-(6-Fluoro-1,2-benzisoxazol-3-yl)-1-piperidinyl]propylamino]-3-hydroxyphenyl]ethanone], the melting point fell in the range of 150 to 152 °C.

`Fc1ccc2c(C3CCN(CCCCBr)CC3)noc2c1` [Example 114, 4-[4-(6-Fluoro-1,2-benzisoxazol-3-yl)-1-piperidinyl]butyl bromide]: the melting point lay in the range of 243 to 245 °C.

As to `Fc1ccc2c(C3CCN(CCN4CCOCC4)CC3)noc2c1` [Example 116, N-[2-[4-(6-Fluoro-1,2-benzisoxazol-3-yl)-1-piperidinyl]ethyl]morpholine], the melting point was in the range of 131 to 132 °C.

On to `COC(C)c1ccc(OCCCN2CCC(c3noc4cc(F)ccc34)CC2)c(O)c1` (centres unmarked) [Example 139, 3-[1-[3-[4-(1-Methoxyethyl)-2-hydroxyphenoxyl]propyl]-4-piperidinyl]-6-fluoro-1,2-benzisoxazole], for which the melting point lay in the range of 98 to 100 °C.

On to `Fc1ccc2c(C3CCN(CCCOc4ccc5[nH]ccc5c4)CC3)noc2c1` [Example 140, 6-Fluoro-3-[1-[3-[(1H-indol-5-yl)oxy]propyl]-4-piperidinyl]-1,2-benzisoxazole], for which the melting point was in the range of 118 to 121 °C.

In turn, `CC(=O)c1ccc(OCCCN2CCC(c3nsc4cc(F)ccc34)CC2)c(O)c1` [Example 144, 1-[4-[3-[4-(6-Fluoro-1,2-benzisothiazol-3-yl)-1-piperidinyl]propoxy]-3-hydroxyphenyl]ethanone] showed a melting point of 135 to 137 °C.

For `COc1cc(C(C)O)ccc1OCCCN1CCC(c2nsc3cc(F)ccc23)CC1` (stereo not drawn) [Example 145, 4-[3-[4-(6-Fluoro-1,2-benzisothiazol-3-yl)-1-piperidinyl]propoxy]-3-methoxy-alpha-methylbenzenemethanol], the melting point is 113 to 115 °C.

For `O=C1c2cc(Cl)c(Cl)cc2C(=O)N1CCN1CCC(c2noc3cc(F)ccc23)CC1` [Example 151, N-[2-[4-(6-Fluoro-1,2-benzisoxazol-3-yl)-1-piperidinyl]ethyl]-4,5-dichlorophthalimide], the melting point was in the range of 132 to 134 °C.

`O=C1c2c(Cl)ccc(Cl)c2C(=O)N1CCN1CCC(c2noc3cc(F)ccc23)CC1` [Example 153, N-[2-[4-(6-Fluoro-1,2-benzisoxazol-3-yl)-1-piperidinyl]ethyl]-3,6-dichlorophthalimide] returned a melting point of 163 to 164 °C.

The compound `O=C1c2cccc(F)c2C(=O)N1CCN1CCC(c2noc3cc(F)ccc23)CC1` [Example 155, N-[2-[4-(6-Fluoro-1,2-benzisoxazol-3-yl)-1-piperidinyl]ethyl]-3-fluorophthalimide] showed a melting point of 142 to 143 °C.
